ChEMBL document CHEMBL1201862, “PubChem BioAssay data set” (2004)
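Results reflect a 48-hour exposure of cells in 96-well plates to compound at five concentrations. GI50 marks 50% less growth.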 Active and inactive are the calls of the source. Rule as the data show it: active = GI50 up to about 1.1 µM and inactive = higher.

Experiments:
Assay in all cases: DTP human tumour cell line panel, 48 h
SF-539 = system: SF-539
TK-10 = system: TK-10
OVCAR-4 = system: OVCAR-4
HCT-116 = system: HCT-116
SW-620 = system: SW-620
LOX IMVI = system: LOX IMVI
RPMI-8226 = system: RPMI-8226
MOLT-4 = system: MOLT-4
UACC-62 = system: UACC-62
SF-295 = system: SF-295
MCF7 = system: MCF7
SN12C = system: SN12C
SR = system: SR
NCI-H460 = system: NCI-H460
U-251 = system: U-251
PC-3 = system: PC-3
HCC 2998 = system: HCC 2998
MDA-MB-435 = system: MDA-MB-435
OVCAR-3 = system: OVCAR-3
RXF 393 = system: RXF 393

| SMILES | GI50 (SF-539) | GI50 (TK-10) | GI50 (OVCAR-4) | GI50 (HCT-116) | GI50 (SW-620) | GI50 (LOX IMVI) | GI50 (RPMI-8226) | GI50 (MOLT-4) | GI50 (UACC-62) | GI50 (SF-295) | GI50 (MCF7) | GI50 (SN12C) | GI50 (SR) | GI50 (NCI-H460) | GI50 (U-251) | GI50 (PC-3) | GI50 (HCC 2998) | GI50 (MDA-MB-435) | GI50 (OVCAR-3) | GI50 (RXF 393) |
| --- | --- | --- | --- | --- | --- | --- | --- | --- | --- | --- | --- | --- | --- | --- | --- | --- | --- | --- | --- | --- |
| COc1ccc(OC)c2sc(N3C(=O)/C(=C/c4ccccc4S)N=C3c3ccccc3)nc12 | 28.6 µM (inactive) | > 100 µM (inactive) | 39.5 µM (inactive) | 28.2 µM (inactive) | 39.2 µM (inactive) | 24.9 µM (inactive) | 22.6 µM (inactive) | 8.83 µM (inactive) | 21.5 µM (inactive) | 52.4 µM (inactive) | 18.7 µM (inactive) | 26.9 µM (inactive) | 14.4 µM (inactive) | 53.8 µM (inactive) | 23.8 µM (inactive) | 19.7 µM (inactive) | > 100 µM (inactive) | 17.6 µM (inactive) | 37.5 µM (inactive) | 18.8 µM (inactive) |
| Cc1cc(C)nc(NS(=O)(=O)c2ccc(NNc3c4ccccc4nc4c(C(=O)Nc5ccc(S(=O)(=O)N=C(N)N)cc5)cccc34)cc2)n1 | 67 µM (inactive) | > 100 µM (inactive) | 65.2 µM (inactive) | 48 µM (inactive) | 71.6 µM (inactive) | 33.7 µM (inactive) | 93.3 µM (inactive) | 34.9 µM (inactive) |  | 77.3 µM (inactive) | 76 µM (inactive) | 64.1 µM (inactive) | 27.5 µM (inactive) | 47.4 µM (inactive) | 25.4 µM (inactive) | 31.6 µM (inactive) | 39.3 µM (inactive) | 39.1 µM (inactive) | 31.8 µM (inactive) | > 100 µM (inactive) |
| CCNC(=S)NNC(=O)CSc1nc2ccc(I)cc2c(=O)n1Cc1ccccc1 | 45.8 µM (inactive) | > 51.2 µM (inactive) | 10.8 µM (inactive) | 6.5 µM (inactive) | 37.8 µM (inactive) | 34.9 µM (inactive) | 14.8 µM (inactive) | 7.48 µM (inactive) | > 27.6 µM (inactive) | 25.4 µM (inactive) | 16.9 µM (inactive) | 10.2 µM (inactive) | 7.43 µM (inactive) | 12.6 µM (inactive) | 43.4 µM (inactive) | 18.5 µM (inactive) | 17.6 µM (inactive) | 12.9 µM (inactive) | 18.2 µM (inactive) | 11.8 µM (inactive) |
| COc1ccc(NC(=S)N/N=C/c2c(C)n(C)n(-c3ccccc3)c2=O)cc1 | 21.3 µM (inactive) | 53.3 µM (inactive) | 19.1 µM (inactive) | 77.6 µM (inactive) | > 100 µM (inactive) | > 100 µM (inactive) | > 100 µM (inactive) | > 100 µM (inactive) | 51.1 µM (inactive) | 37.9 µM (inactive) | 42.7 µM (inactive) |  | 78.5 µM (inactive) |  | 20.4 µM (inactive) | 69.8 µM (inactive) | > 100 µM (inactive) | 51.4 µM (inactive) |  | 23 µM (inactive) |
| CCOC1C=CCCO1 (stereo not drawn) | > 100 µM (inactive) | > 100 µM (inactive) | > 100 µM (inactive) | > 100 µM (inactive) | > 100 µM (inactive) | > 100 µM (inactive) | > 100 µM (inactive) | > 100 µM (inactive) | > 100 µM (inactive) | > 100 µM (inactive) | > 100 µM (inactive) | > 100 µM (inactive) | > 100 µM (inactive) | > 100 µM (inactive) |  | > 100 µM (inactive) | 1.55 µM (inactive) | > 100 µM (inactive) | > 100 µM (inactive) | > 100 µM (inactive) |
| Cc1cc(=O)oc2c(C)c3oc(CBr)c(Br)c3cc12 | 37.6 µM (inactive) | 56.4 µM (inactive) | 28.5 µM (inactive) | 26.9 µM (inactive) | 16.9 µM (inactive) | 12.6 µM (inactive) | 16.3 µM (inactive) | 8.59 µM (inactive) | 17.5 µM (inactive) | 17.2 µM (inactive) | 33.1 µM (inactive) | 20.1 µM (inactive) | 27.7 µM (inactive) | 18.9 µM (inactive) | 31.1 µM (inactive) | 40.4 µM (inactive) | 19.3 µM (inactive) | 43.3 µM (inactive) | > 100 µM (inactive) | 19.8 µM (inactive) |
| CCC1(c2ccccc2)C(=O)N=C(c2ccccc2)N1CCc1ccccc1 (stereo not drawn) | > 100 µM (inactive) | > 100 µM (inactive) | > 100 µM (inactive) | > 100 µM (inactive) | > 100 µM (inactive) | > 100 µM (inactive) | > 100 µM (inactive) | > 100 µM (inactive) | > 100 µM (inactive) | > 100 µM (inactive) | > 100 µM (inactive) | > 100 µM (inactive) | > 100 µM (inactive) |  | > 100 µM (inactive) | > 100 µM (inactive) | > 100 µM (inactive) | > 100 µM (inactive) | > 100 µM (inactive) | > 100 µM (inactive) |
| CSc1nc2c(c(=O)n1C)N=C(c1ccc([N+](=O)[O-])cc1)CC(c1ccccc1)N2 (stereo not drawn) | > 100 µM (inactive) |  | 91.8 µM (inactive) | > 100 µM (inactive) | > 100 µM (inactive) | 78.9 µM (inactive) | > 100 µM (inactive) | 33 µM (inactive) | > 100 µM (inactive) | > 100 µM (inactive) | 49 µM (inactive) | > 100 µM (inactive) | > 100 µM (inactive) | 90.6 µM (inactive) | > 100 µM (inactive) | > 100 µM (inactive) | > 100 µM (inactive) | > 100 µM (inactive) | > 100 µM (inactive) | > 100 µM (inactive) |
| C=C(CN(C)C)C(=O)c1cc(C)ccc1C | 8.91 µM (inactive) | 8.95 µM (inactive) | 9.75 µM (inactive) | 4.7 µM (inactive) | 1.82 µM (inactive) | 4.84 µM (inactive) | 1.42 µM (inactive) | 0.371 µM (active) | 10.5 µM (inactive) | 16.7 µM (inactive) | 2.96 µM (inactive) | 15.6 µM (inactive) | 0.726 µM (active) | 19.9 µM (inactive) | 15.7 µM (inactive) | 14.1 µM (inactive) | 15.8 µM (inactive) | 8.45 µM (inactive) | 5.33 µM (inactive) | 2.61 µM (inactive) |
| CC1=NN(C(=O)CC(=O)Nc2ccccc2C)C(=O)C1/N=N/c1ccc(C(=O)O)cc1 (stereo not drawn) | > 100 µM (inactive) | > 100 µM (inactive) | > 100 µM (inactive) | > 100 µM (inactive) | > 100 µM (inactive) | 79.3 µM (inactive) | > 100 µM (inactive) | 88.1 µM (inactive) | > 100 µM (inactive) | > 100 µM (inactive) | > 100 µM (inactive) | > 100 µM (inactive) | 43.4 µM (inactive) | > 100 µM (inactive) | > 100 µM (inactive) | > 100 µM (inactive) | > 100 µM (inactive) | > 100 µM (inactive) | > 100 µM (inactive) | > 100 µM (inactive) |
| COc1cc(Oc2nc3c(N)cc(C(F)(F)F)cc3nc2-c2ccccc2)cc(OC)c1OC | 3.4 µM (inactive) | 26.1 µM (inactive) | 19.2 µM (inactive) | 2.34 µM (inactive) | 3.07 µM (inactive) | 3.48 µM (inactive) | 2.45 µM (inactive) | 3.44 µM (inactive) | 1.66 µM (inactive) | 1.95 µM (inactive) | 3.17 µM (inactive) | 8.07 µM (inactive) | 0.624 µM (active) | 4.14 µM (inactive) | 5.9 µM (inactive) | 1.92 µM (inactive) | 5.36 µM (inactive) | 0.445 µM (active) | 1.3 µM (inactive) | 5.71 µM (inactive) |
| CC(NC(=O)Cc1ccc(OP(=O)(OCc2ccc([N+](=O)[O-])o2)N(C)CCCCCl)cc1)c1ccc(OCC2CCCCC2)c(C(N)=O)c1 (stereo not drawn) | 2.02 µM (inactive) | 3.22 µM (inactive) | 2.16 µM (inactive) | 1.85 µM (inactive) | 3.45 µM (inactive) | 1.74 µM (inactive) | 0.574 µM (active) | 1.52 µM (inactive) | 1.74 µM (inactive) | 2.24 µM (inactive) | 2.52 µM (inactive) | 1.96 µM (inactive) | 1.48 µM (inactive) | 2.79 µM (inactive) | 2.14 µM (inactive) | 2.88 µM (inactive) | 1.35 µM (inactive) | 1.89 µM (inactive) | 1.66 µM (inactive) | 1.99 µM (inactive) |
| O=C1/C(=C/c2ccc(O)cc2)CC/C1=C\c1ccc(O)cc1 | 22.6 µM (inactive) | > 100 µM (inactive) | > 64.3 µM (inactive) | > 100 µM (inactive) | > 100 µM (inactive) | > 100 µM (inactive) | 49.3 µM (inactive) | 7.14 µM (inactive) | 13.3 µM (inactive) | > 96.4 µM (inactive) | > 100 µM (inactive) | > 64.6 µM (inactive) | 3.37 µM (inactive) | 44.7 µM (inactive) | 53.1 µM (inactive) | 59.6 µM (inactive) | > 100 µM (inactive) | > 100 µM (inactive) | > 100 µM (inactive) | > 100 µM (inactive) |
| O=CN/C=C/c1cccc(O)c1 | 57.3 µM (inactive) | 88.3 µM (inactive) | 61.4 µM (inactive) | 52.7 µM (inactive) | 69.7 µM (inactive) | 48.4 µM (inactive) | > 71.9 µM (inactive) | 59.8 µM (inactive) | 46.1 µM (inactive) | 48.8 µM (inactive) | > 34 µM (inactive) | 56.2 µM (inactive) | > 43.7 µM (inactive) | 43.1 µM (inactive) | 56.9 µM (inactive) | 56.6 µM (inactive) | > 74.6 µM (inactive) | 38.2 µM (inactive) | > 100 µM (inactive) | 60 µM (inactive) |
